Measurements reported in article PMC10303036 (Journal of medicinal chemistry, 2022).
≈ marks a conversion by molar mass, not a printed value. Entries after “also recorded” stand apart in the source; their conditions may differ. Like-named read-outs stand apart in the source and are kept apart here.

Columns and labels:
ACC complex = ACC complex (Escherichia coli, UniProt P0A9Q5+P0ABD5+P24182); assay: Spin-column LC-MS/MS competition assay; format: binding, E. coli; details: for dissociation from ACC with 1 and 3 together: 50 μM of 1 and 3 together added to ACC-inhibitor complex; for dissociation from ACC with 1 alone: 100 μM of 1 alone added to ACC-inhibitor complex
E. coli ACC = E. coli ACC (Escherichia coli, UniProt P0A9Q5+P0ABD5+P24182); assay: ACC activity fluorescence polarization assay; format: biochemical; details: for IC50: IC50, fluorescence polarization assay, triplicate, ± SD; for Ki: Ki (apparent, Morrison equation), tight binding inhibitors (IC50 < 0.5 nM), fluorescence polarization assay
E. coli ΔtolC = format: cell-based
[1] = literature antibacterial activity, strain not stated; cited from earlier work

ACC complex, sequence (P0A9Q5 whole entry): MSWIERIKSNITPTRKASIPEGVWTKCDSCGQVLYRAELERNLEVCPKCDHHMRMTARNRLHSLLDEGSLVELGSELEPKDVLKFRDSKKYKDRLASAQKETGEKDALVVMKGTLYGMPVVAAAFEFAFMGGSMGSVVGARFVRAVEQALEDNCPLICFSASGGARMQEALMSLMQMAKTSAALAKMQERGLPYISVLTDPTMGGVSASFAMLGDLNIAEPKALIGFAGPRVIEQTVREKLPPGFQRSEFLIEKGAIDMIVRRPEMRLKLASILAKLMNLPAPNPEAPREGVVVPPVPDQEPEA
ACC complex, sequence (P0ABD5 whole entry): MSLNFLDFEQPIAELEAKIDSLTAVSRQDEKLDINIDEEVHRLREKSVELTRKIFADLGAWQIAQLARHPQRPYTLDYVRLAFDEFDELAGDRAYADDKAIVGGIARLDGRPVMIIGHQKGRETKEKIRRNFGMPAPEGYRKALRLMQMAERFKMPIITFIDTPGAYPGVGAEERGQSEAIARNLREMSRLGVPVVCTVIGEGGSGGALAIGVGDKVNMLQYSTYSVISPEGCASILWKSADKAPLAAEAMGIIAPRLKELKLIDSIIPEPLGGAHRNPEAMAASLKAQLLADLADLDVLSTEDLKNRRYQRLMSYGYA
E. coli ACC, sequence (P0ABD5 whole entry): as above
E. coli ACC, sequence (P0A9Q5 whole entry): as the sequence (P0A9Q5 whole entry) above

CC(C)[C@H](NC(=O)C[C@H](NC(=O)CCCCCCCCCCn1cc(CCCCOc2ccc(Br)c(-c3cc4cnc(N)nc4nc3N)c2Br)nn1)c1ccccc1)C(=O)[C@@H]1C(=O)NC(=O)[C@H]1C [Compound 15, 11-(4-(4-(2,4-dibromo-3-(2,7-diaminopyrido[2,3-d]pyrimidin-6-yl)phenoxy)butyl)-1H-1,2,3-triazol-1-yl)-N-((1S)-3-(((2S)-3-methyl-1-((3R,4S)-4-methyl-2,5-dioxopyrrolidin-3-yl)-1-oxobutan-2-yl)amino)-3-oxo-1-phenylpropyl)undecanamide]
dissociation from ACC with 1 and 3 together (ACC complex): rapid dissociation
dissociation from ACC with 1 alone (ACC complex): little or no dissociation

C/C=C/C=C/C(=O)N[C@@H](CC(=O)N[C@H](C(=O)[C@@H]1C(=O)NC(=O)[C@H]1C)C(C)C)c1ccccc1 [Compound 3, moiramide B, reference compound]
IC50 (E. coli ACC): 5 nM

CC(C)[C@H](NC(=O)C[C@H](NC(=O)CCCCCCCCCCn1cc(CCCCOCCOCCOCCOc2ccc(Br)c(-c3cc4cnc(N)nc4nc3N)c2Br)nn1)c1ccccc1)C(=O)[C@@H]1C(=O)NC(=O)[C@H]1C [Compound 16, 11-(4-(4-(2-(2-(2-(2,4-dibromo-3-(2,7-diaminopyrido[2,3-d]pyrimidin-6-yl)phenoxy)ethoxy)ethoxy)ethoxy)butyl)-1H-1,2,3-triazol-1-yl)-N-((1S)-3-(((2S)-3-methyl-1-((3R,4S)-4-methyl-2,5-dioxopyrrolidin-3-yl)-1-oxobutan-2-yl)amino)-3-oxo-1-phenylpropyl)undecanamide]
dissociation from ACC with 1 and 3 together (ACC complex): rapid dissociation
dissociation from ACC with 1 alone (ACC complex): little or no dissociation

C#CCCCCOCCOCCOCCOCCOCCOCCOCCOCCOCCOCCOCCOCCOc1ccc(Br)c(-c2cc3cnc(N)nc3nc2N)c1Br [Compound 9e, 6-(2,6-dibromo-3-(3,6,9,12,15,18,21,24,27,30,33,36-dodecaoxadotetracont-41-yn-1-yloxy)phenyl)pyrido[2,3-d]pyrimidine-2,7-diamine]
MIC ΔtolC + PMBN (E. coli ΔtolC; PMBN 6 μM (8 μg/mL)): 12.5 µM

CC(C)[C@H](NC(=O)C[C@H](NC(=O)CCCCCCCCCCn1cc(CCCCOCCOCCOCCOCCOCCOCCOc2cc(Br)c(-c3cc4cnc(N)nc4nc3N)c(Br)c2)nn1)c1ccccc1)C(=O)[C@@H]1C(=O)NC(=O)[C@H]1C [Compound 17-p, 11-(4-(22-(3,5-dibromo-4-(2,7-diaminopyrido[2,3-d]pyrimidin-6-yl)phenoxy)-5,8,11,14,17,20-hexaoxadocos-1-yl)-1H-1,2,3-triazol-1-yl)-N-((1S)-3-(((2S)-3-methyl-1-((3R,4S)-4-methyl-2,5-dioxopyrrolidin-3-yl)-1-oxobutan-2-yl)amino)-3-oxo-1-phenylpropyl)undecanamide]
Ki (E. coli ACC): 3.53 nM

Nc1ncc(C(=O)N(Cc2ccccc2)Cc2ccccc2)o1 [Compound 2]
MIC [1]: > 64 µg/mL

C#CCCCCOCCOCCOCCOCCOCCOCCOc1cc(Br)c(-c2cc3cnc(N)nc3nc2N)c(Br)c1 [Compound 9c-p, 6-(2,6-dibromo-4-(3,6,9,12,15,18-hexaoxatetracos-23-yn-1-yloxy)phenyl)pyrido[2,3-d]pyrimidine-2,7-diamine]
IC50 (E. coli ACC): > 500 nM

CC(C)[C@H](NC(=O)C[C@H](NC(=O)CCCCCCCCCCn1cc(CCCCOCCOCCOCCOCCOCCOCCOc2ccc(Br)c(-c3cc4cnc(N)nc4nc3N)c2Br)nn1)c1ccccc1)C(=O)[C@@H]1C(=O)NC(=O)[C@H]1C [Compound 17, 11-(4-(22-(2,4-dibromo-3-(2,7-diaminopyrido[2,3-d]pyrimidin-6-yl)phenoxy)-5,8,11,14,17,20-hexaoxadocos-1-yl)-1H-1,2,3-triazol-1-yl)-N-((1S)-3-(((2S)-3-methyl-1-((3R,4S)-4-methyl-2,5-dioxopyrrolidin-3-yl)-1-oxobutan-2-yl)amino)-3-oxo-1-phenylpropyl)undecanamide]
dissociation from ACC with 1 and 3 together (ACC complex): rapid dissociation
dissociation from ACC with 1 or 3 alone (ACC complex; 100 μM (100-fold excess) of 1 or 3 alone added to ACC-inhibitor complex): unable to displace; also recorded: No dissociation
Ki (E. coli ACC): 0.2 nM
MIC ΔtolC + PMBN (E. coli ΔtolC; PMBN included): 0.5 µg/mL
MIC ΔtolC (E. coli ΔtolC; without PMBN): 4 µg/mL (≈ 3.02 µM)
